The subject of this assay is Bombyx mori. The experiment in a line: Insecticidal activity against po dosed larvae of Bombyx mori assessed per gram of diet. The assay is classed as functional.
The compound `CO[C@@H]1[C@]2(O)C(=O)N3/C=C\C(C)(C)c4[nH]c5ccccc5c4/C=C\3C(=O)N2[C@]23[C@H](C)C(C)(C)N2c2ccccc2[C@]13O` [OKARAMINE B] returned an LD50 of 0.2 mg/kg.

Compound `C=CC(C)(C)c1[nH]c2ccccc2c1CC1NC(=O)[C@H]2C[C@@]3(O)c4ccccc4N(C(C)(C)C=C)[C@H]3N2C1=O` (stereo partly drawn) [OKARAMINE C] displayed an LD50 of 7 mg/kg. The figure for `C=CC(C)(C)N1c2ccccc2[C@]2(O)C[C@@H]3C(=O)N4/C=C\C(C)(C)c5[nH]c6ccccc6c5/C=C\4C(=O)N3[C@H]12` [OKARAMINE A] is 8 mg/kg.

These data come from ChEMBL document CHEMBL3044628, “Okaramine C, a New Insecticidal Indole Alkaloid from Penicillium simplicissimum” (1991).
